Source: patent publication US4391828A, “Dibutylorthobenzylmethoxybenzenes and dibutylorthocinnamylmethoxybenzenes as mosquito larvae growth inhibitors” (The United States of America as represented by the …, priority 1982, dated 1983)
≈ marks a conversion by molar mass, not a printed value.

Columns and labels:
Experiment in all cases: Growth-inhibition test on mosquito larvae
[1] = test system: Anopheles quadrimaculatus; assay type: in vivo, Anopheles quadrimaculatus (malaria mosquito); conditions: late third- and early fourth-stage larvae, 7 days, corrected by Abbott's formula; for LC50: 168 h, read-out: LC-50 (concentration that would prevent and/or retard the growth in 50% of the treated larvae)
Protocol: (§1) Twenty-five late third-and early fourth-stage mosquito larve were placed in a 500-ml glass jar (9X8.5 cm diam) containing 100 ml of well water, 0.05g ground hog supplement for larval food, and a known amount of the test compound in not more than 1.0ml acetone. The jars were covered with cloth netting and held in constant temperature incubators at 26.7°-28.9° C. and 65-75% relative humidity; a low level of illumination (ca. 0.5 foot candles inside the incubators) was maintained during nonworking hours. After seven days, the jars were examined for the number of dead pupae, the number of adults that were dead or unable to complete eclosion and the number of exuvia. […] Tests were replicated for at least one concentration and a control was set with each test series. Several concentrations of each compound were tested so that a dose-response relationship could be established.
(§2) The effectiveness of the compound in inhibiting growth was determined by adding the numbers of dead larvae and pupae and the numbers of adults that were dead, unable to complete eclosion, and malformed. This sum was corrected by Abbott's formula (to adjust for the number of larvae or pupae which would die naturally). The results are expressed as LC 50 or LC 90, i.e., the concentration of growth inhibitor in ppm that would prevent and/or retard the growth in 50% or 90%, respectively, of the treated larvae.

Aedes taeniorhynchos = assay type: in vivo; conditions: late third- and early fourth-stage larvae, 7 days, corrected by Abbott's formula
Protocol: as §1, §2

Anopheles albimanus = assay type: in vivo; conditions: late third- and early fourth-stage larvae, 7 days, corrected by Abbott's formula
Protocol: as §1, §2

Aedes aegypti = assay type: in vivo, Aedes aegypti (yellow fever mosquito); conditions: late third- and early fourth-stage larvae, 7 days, corrected by Abbott's formula
Protocol: as §1, §2

SMILES	LC-90 (concentration that would prevent and/or retard the growth in 90% of the treated larvae) [1] [ppm]	LC50 [1] [mg/L]	further results
CCOc1c(C(C)c2ccc(OC)cc2)cc(C(C)(C)C)cc1C(C)(C)C (stereo not drawn) [B-V]	> 1.0	–	–
COc1c(CC=Cc2ccccc2)cc(C(C)(C)C)cc1C(C)(C)C [C, 2,4-Bis(1,1-dimethylethyl)-6-(3-phenyl-2-propenyl)methoxybenzene]	0.089	0.026 (≈ 0.0773 µM)	–
COc1ccc(Cc2cc(C(C)(C)C)cc(C(C)(C)C)c2O)cc1 [Compound B-I, 2,4-bis(1,1-dimethylethyl)-6-[(4-methoxyphenyl)methyl]phenol]	0.225	0.12 (≈ 0.368 µM)	–
COc1ccc(C(C)c2cc(C(C)(C)C)cc(C(C)(C)C)c2OC)cc1 (stereo not drawn) [B-IV]	0.556	0.242 (≈ 0.683 µM)	–
COc1c(C(C)c2ccccc2)cc(C(C)(C)C)cc1C(C)(C)C (stereo not drawn) [A-III]	> 1.0	–	–
CCOc1c(C(C)c2ccccc2)cc(C(C)(C)C)cc1C(C)(C)C (stereo not drawn) [A-II]	> 1.0	–	–
CC(C)(C)c1cc(CC=Cc2ccccc2)c(O)c(C(C)(C)C)c1 [C-I]	0.399	0.152 (≈ 0.471 µM)	–
CC(C)(C)c1cc(Cc2ccccc2)c(O)c(C(C)(C)C)c1 [A-I]	1.37	0.2 (≈ 0.675 µM)	–
CCOc1c(Cc2ccc(OC)cc2)cc(C(C)(C)C)cc1C(C)(C)C [B-II]	0.285	0.074 (≈ 0.209 µM)	–
COc1ccc(Cc2cc(C(C)(C)C)cc(C(C)(C)C)c2OC)cc1 [Compound B, 2,4-Bis (1,1-dimethylethyl)-6-[(4-methoxyphenyl)methyl]-methoxybenzene]	0.032	–	LC-50 (Aedes taeniorhynchos): 0.009 ppm; LC-90 (Aedes taeniorhynchos): 0.023 ppm; LC-50 (Anopheles albimanus): .005 ppm; LC-90 (Anopheles albimanus): 0.009 ppm; LC-50 (Aedes aegypti): 0.005 ppm; LC-90 (Aedes aegypti): 0.099 ppm
CCOc1c(CC=Cc2ccccc2)cc(C(C)(C)C)cc1C(C)(C)C [C-II]	1.042	0.189 (≈ 0.539 µM)	–
COc1c(Cc2ccccc2)cc(C(C)(C)C)cc1C(C)(C)C [A, 2,4-Bis(1,1-dimethylethyl)-6-(phenylmethyl)methoxybenzene]	0.092	0.065 (≈ 0.209 µM)	LC-50 (Aedes taeniorhynchos): 0.026 ppm; LC-90 (Aedes taeniorhynchos): 0.164 ppm; LC-50 (Anopheles albimanus): 0.014 ppm; LC-90 (Anopheles albimanus): 0.025 ppm
